Results from patent US11453660B2, “Androgen receptor and glucocorticoid receptor modulators” (ONCOSTELLAE, S.L., priority 2017, dated 2022).
Changes are numbered by the printed parent chain. pIC50: −log10 of the molar value.

Columns and labels:
AR-Receptor = biological target: T1, AR-Receptor (Homo sapiens, UniProt P10275); assay: Functional Assay AR-Receptor (MDA-MB-453 cells, luciferase); type: cell-based; conditions: antagonist effect in the presence of DHT 1 nM, 24 h, luciferase luminescence, read-out: AR antag KB
T1 sequence (P10275 1-920 Q868H): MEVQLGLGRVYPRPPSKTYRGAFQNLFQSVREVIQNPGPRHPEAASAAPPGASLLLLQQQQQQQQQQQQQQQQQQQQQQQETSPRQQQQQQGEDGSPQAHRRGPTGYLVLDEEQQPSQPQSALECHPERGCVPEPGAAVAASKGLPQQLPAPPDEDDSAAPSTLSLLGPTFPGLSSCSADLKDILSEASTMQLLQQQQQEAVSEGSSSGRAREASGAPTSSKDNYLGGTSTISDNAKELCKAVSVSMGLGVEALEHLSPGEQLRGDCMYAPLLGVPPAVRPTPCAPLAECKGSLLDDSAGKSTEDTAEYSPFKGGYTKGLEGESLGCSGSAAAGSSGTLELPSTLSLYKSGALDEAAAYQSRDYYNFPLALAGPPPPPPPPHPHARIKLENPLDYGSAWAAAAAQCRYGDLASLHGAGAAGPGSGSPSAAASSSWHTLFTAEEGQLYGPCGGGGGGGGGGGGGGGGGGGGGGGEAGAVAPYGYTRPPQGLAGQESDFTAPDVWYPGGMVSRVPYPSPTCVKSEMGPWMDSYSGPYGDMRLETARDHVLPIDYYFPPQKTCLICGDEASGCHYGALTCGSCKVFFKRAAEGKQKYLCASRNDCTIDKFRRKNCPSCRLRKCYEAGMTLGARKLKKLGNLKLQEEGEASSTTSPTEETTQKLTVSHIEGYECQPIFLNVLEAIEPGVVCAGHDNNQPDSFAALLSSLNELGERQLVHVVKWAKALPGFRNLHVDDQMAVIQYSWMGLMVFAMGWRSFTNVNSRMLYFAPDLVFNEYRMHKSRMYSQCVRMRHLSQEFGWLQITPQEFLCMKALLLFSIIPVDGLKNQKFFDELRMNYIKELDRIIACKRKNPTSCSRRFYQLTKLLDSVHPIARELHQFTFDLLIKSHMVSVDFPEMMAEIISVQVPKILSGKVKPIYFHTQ
Description: Functional Assay AR-Receptor
MDA-MB-453 cells were cultured in DMEM (ATCC, ref 30-2002), 10% FBS, 1% penicillin, 1% streptomycin, 75 μg/ml gentamycin.
The day before performing assay, the cells were trypsinized and seeded in a 384-well plate (Greiner, ref 781098) (8000 cells/well) in 50 μl of complete culture medium. Cells were stores at 37° C. in a 5% CO2 atmosphere overnight.
The medium was replaced by 50 μl complete growth medium with 0.1% FBS. Compounds were dispensed with Echo 550 (Labcyte) and incubated for 24 h at 37° C. in a 5% CO2 atmosphere. Antagonist effect was measured in the presence of DHT 1 nM.
After incubation, assay medium removed and 20 μl of 1× Promega lysis buffer were added to each well. The plate was incubated 15 minutes at RT and quick-frozen to −80° C. and the thaw to room temperature. 50 μl of luciferase substrate (E4550, Promega) were added to each well and luminescence (integration time 1000 msec) was read in an EnSpire multilabel reader (Perkin Elmer).

Rat Androgen Receptor = biological target: T2, Rat Androgen Receptor (Rattus norvegicus, UniProt P15207); assay: Rat Androgen Receptor Binding (polarscreen AR competitor assay, fluorescence polarization); conditions: displacement of Fluormone AL Green, 4 hours at RT, read-out: AR rat-fluorimetric
T2 construct: purchased Life Technologies A15880
T2 sequence (P15207 646-902 limits assumed): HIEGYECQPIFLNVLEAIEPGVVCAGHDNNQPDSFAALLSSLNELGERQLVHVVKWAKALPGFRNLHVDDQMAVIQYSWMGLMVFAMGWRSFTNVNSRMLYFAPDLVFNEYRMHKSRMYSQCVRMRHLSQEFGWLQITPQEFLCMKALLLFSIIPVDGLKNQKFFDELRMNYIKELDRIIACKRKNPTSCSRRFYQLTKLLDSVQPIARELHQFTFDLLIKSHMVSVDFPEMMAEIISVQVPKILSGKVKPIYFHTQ
In short: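 Fluorescence-polarization competition of Fluormone AL Green binding to rat androgen receptor; compounds screened in duplicate at 1 and 10 μM, 4 h at RT, read at λexc 485/λem 535 nm. IC50 from 1:10 dilution series, 10 μM to 0.1 nM, in 1× buffer.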

human androgen receptor = biological target: T3, human androgen receptor (Homo sapiens, UniProt P10275, T878A); assay: Human Androgen Receptor Binding (radioligand binding, LnCap prostate cancer cell line); conditions: LnCap cells, displacement of [^3H]-methyltrienolone, 2 hours at 37° C.; read-out: AR LNCaP
T3 construct: endogenously expressed human androgen receptor using the LnCap prostate cancer cell line; endogenous in cells; host or cells: LNCaP prostate cancer cell line (whole cells)
T3 sequence (P10275 1-920 T878A): T1 sequence (P10275 1-920 Q868H) with H868Q, T878A
In short: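 Whole-cell displacement of [3H]-methyltrienolone from endogenous AR (T878A) in LnCap cells, in RPMI with 0.1% BSA and triamcinolone acetonide. Compounds 10 μM to 0.1 nM in 1:10 steps, 2 h at 37 °C; cells washed, SDS-lysed, bound radioactivity by scintillation counting for IC50.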

Row | Kb (AR-Receptor) | pIC50 (Rat Androgen Receptor) | pIC50 (human androgen receptor) | Structure (SMILES)
1 | < 0.1 µM | ≤ 6.00 | ≤ 6.00 | CC(=O)C1=C(C)NC(C)=C(C(=O)OCc2ccncc2)C1c1csc2ccccc12 (stereo not shown) [Example B12, Pyridin-4-ylmethyl 5-acetyl-4-(benzo[b]thiophen-3-yl)-2,6-dimethyl-1,4-dihydropyridine-3-carboxylate]
2 | 0.1 to 1 µM | ≤ 6.00 | – | CC(=O)C1=C(C)NC(C)=C(C(=O)OCCc2ccccc2)C1c1csc2ccccc12 (stereo not shown) [Example C10, Phenethyl 5-acetyl-4-(benzo[b]thiophen-3-yl)-2,6-dimethyl-1,4-dihydropyridine-3-carboxylate]
3 | 0.1 to 1 µM | 6.00 to 7.00 | – | CC(=O)C1=C(C)NC(C)=C(C(=O)Cc2ccccc2)C1c1csc2ccccc12 (stereo not shown) [Example C52, 1-(5-acetyl-4-(benzo[b]thiophen-3-yl)-2,6-dimethyl-1,4-dihydropyridin-3-yl)-2-phenylethan-1-one]
4 | 0.1 to 1 µM | 6.00 to 7.00 | ≤ 6.00 | CC(=O)C1=C(C)NC(C)=C(C(=O)OCC2CCCCC2)C1c1csc2ccccc12 (stereo not shown) [Example B21, Cyclohexylmethyl 5-acetyl-4-(benzo[b]thiophen-3-yl)-2,6-dimethyl-1,4-dihydropyridine-3-carboxylate]
